Patent US6376510B1, “Neuromuscular relaxants” (Newlaxant LLC, priority 1997, dated 2002)

Legend:
[1] = tested on: anesthetized rats (evoked responses of anterior tibial muscle); experiment: In vivo neuromuscular block and cardiovascular side effects, anesthetized rat (Example 8, Table 3)
Outline: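 Pentobarbital-anesthetized (i.p.), ventilated adult male rats given saline-dissolved agents i.v.; anterior tibial EMG responses to supramaximal single or train-of-four sciatic/peroneal stimuli, plus 0.1 or 1 Hz stimulation. Doses for 50%, 80%, 90% block derived. Onset: minutes to 80-85% block; RI: 25-75% spontaneous recovery; vagal block, heart rate and blood pressure changes (%) at 80-85% blocking dose.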

dogs = experiment: animal or person; format: in vivo; settings: dog
rabbits = experiment: In vivo neuromuscular block and cardiovascular side effects, rabbit (Example 8, Table 7)
[2] = tested on: anesthetized juvenile Duroc pigs; experiment: animal or person; settings: for % VB at ED80 nmb (vagal block) / BP (change in arterial blood pressure) / HR (change in heart rate): in vivo; for RI (recovery index): spontaneous recovery, 25-75% neuromuscular response; for Onset: time to 80-85% neuromuscular block
Source text: (§1) The data on muscle relaxant action were obtained on anesthetized rats, and when indicated, also on juvenile pigs
(§2) Adult, male albino rats were anesthetized with pentobarbital injected intraperitoneally. Juvenile, Duroc pigs 9-12 kg body weight were anesthetized with Chloralose Nembutal sodium mixture intraperitoneally after deep sedation with inhaled halothane. The trachea was cannulated for artificial respiration via a small animal respirator. The carotid artery was cannulated for recording blood pressure via a transducer and heart rate by a cardiotachograph on a polygraph. One external jugular vein was cannulated for i.v. drug administration. Neuromuscular function was monitored by electromyography, recording evoked responses from the anterior tibial muscle as a result of supramaximal nerve stimuli consisting of single or “train-of-four” rectangular pulses of 0.1-0.2 msec duration every 10-12 seconds, delivered to the sciatic or common peroneal nerve by a laboratory nerve stimulator. Another mode of stimulation included repeated single stimuli delivered at 0.1 Hz or 1 Hz. […] The agents were dissolved in physiologic saline and injected intravenously at appropriate time intervals. The intensity, onset, and duration of neuromuscular block and its type were determined with each agent. Through administering several doses, the doses corresponding to 50%, 80% and 90% neuromuscular block were determined. All agents were compared with selected standard neuromuscular blocking compounds, e.g., rocuronium.
(§3) Onset=time in minutes to 80-85% neuromuscular block.
(§4) RI=recovery index, minutes, spontaneous recovery, 25-75% neuromuscular response.
(§5) VB=vagal block, %, at 80-85% neuromuscular blocking dose.
(§6) HR=change in heart rate, %, at 80-85% neuromuscular blocking dose.
(§7) BP=change in arterial blood pressure, %, at 80-85% neuromuscular blocking dose.

anesthetized monkeys = experiment: In vivo neuromuscular block and cardiovascular side effects, monkey (Example 8, Table 6)
Outline: (§8)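 Electromyographic and mechanomyographic responses quantified. Monkeys sedated with intramuscular ketamine, then general anesthesia with intravenous pentobarbital and propofol; juvenile pigs induced with inhaled halothane.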

[3] = tested on: anesthetized rats (evoked responses of anterior tibial muscle); experiment: Muscle relaxant (neuromuscular blocking) properties, anesthetized rat (Example 9, Table 9); settings: for Onset: time to 80-85% neuromuscular block
Source text: as §1, §2, §3, §4, §5, §6, §7

[4] = tested on: anesthetized cats (evoked responses of anterior tibial muscle); experiment: animal or person
Outline: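 Adult cats anesthetized i.p. with 70 mg/kg alpha chloralose plus 0.5 g/kg ethylurethane; agents in saline given i.v. Anterior tibial muscle responses to supramaximal single or train-of-four stimuli of sciatic or peroneal nerve recorded electromyographically and mechanomyographically, alongside blood pressure and heart rate.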

[5] = tested on: anesthetized juvenile pigs; experiment: animal or person; format: in vivo; settings: pig
Outline: as §8

[6] = time to 80-85% neuromuscular block

C=CC[N+]1([C@H]2C[C@H]3[C@@H]4CC[C@H]5C[C@H](O)[C@@H](N6CCOCC6)C[C@]5(C)[C@H]4CC[C@]3(C)[C@H]2OC(C)=O)CCCC1 [Rocuronium, reference compound]
ED50 ([1]; Rattus norvegicus, iv): 0.45 mg/kg | VB (vagal block) ([1]; male, rat, in vivo): 60% | ΔBP (change in arterial blood pressure) ([1]; male, rat, in vivo): 0% | ΔH (change in heart rate) ([1]; male, rat, in vivo): 0% | RI (recovery index) ([1]; rat, in vivo): 1.3 min | Onset ([1]; rat, time to 80-85% neuromuscular block): 0.95 min | ED50 (dogs; Canis lupus familiaris, intravenous dose causing 50% neuromuscular block, read-out: ED50): 0.076 mg/kg | RI (recovery index) (dogs; in vivo): 3.3 min | ΔBP (change in arterial blood pressure) (dogs; in vivo): 0% | ΔH (change in heart rate) (dogs; in vivo): 0% | Onset (dogs; [6]): 1.9 min | ED50 (rabbits; Oryctolagus cuniculus, intravenous dose causing 50% neuromuscular block, read-out: ED50): 0.03 mg/kg | RI (recovery index) (rabbits; in vivo): 2.4 min | ΔBP (change in arterial blood pressure) (rabbits; in vivo): 0% | ΔH (change in heart rate) (rabbits; in vivo): 0% | Onset (rabbits; [6]): 1.1 min | % VB at ED80 nmb (vagal block) ([2]; Duroc, pig): 47% | BP (change in arterial blood pressure) ([2]; Duroc, pig): 0% | HR (change in heart rate) ([2]; Duroc, pig): 0% | ED50 ([2]; Sus scrofa, iv): 0.35 mg/kg | RI (recovery index) ([2]; pig): 3.2 min | Onset ([2]; pig): 1.5 min | ED50 (anesthetized monkeys; Primates, intravenous dose causing 50% neuromuscular block, read-out: ED50): 0.013 mg/kg | RI (recovery index) (anesthetized monkeys; in vivo): 5.6 min | ΔBP (change in arterial blood pressure) (anesthetized monkeys; in vivo): 0% | ΔH (change in heart rate) (anesthetized monkeys; in vivo): 0% | Onset (anesthetized monkeys; [6]): 3.5 min | ED50 ([3]; Rattus norvegicus, iv): 0.45 mg/kg | % VB at ED80 nmb (vagal block) ([3]; male, rat, in vivo): 60% | BP (change in arterial blood pressure) ([3]; male, rat, in vivo): 0% | HR (change in heart rate) ([3]; male, rat, in vivo): 0% | RI (recovery index) ([3]; rat, in vivo): 1.3 min | Onset ([3]; rat): 0.95 min | ED50 ([4]; Felis catus, iv): 0.185 mg/kg | ΔBP (change in arterial blood pressure) ([4]; cat, in vivo): 0% | ΔH (change in heart rate) ([4]; cat, in vivo): 0% | Onset ([4]; cat, time to 80-85% neuromuscular block): 2.1 min | RI (recovery index) ([4]; in vivo): 3.8 min | ED50 ([5]; Sus scrofa, intravenous dose causing 50% neuromuscular block, read-out: ED50): 0.35 mg/kg | RI (recovery index) ([5]; in vivo): 3.2 min | VB (vagal block) ([5]; in vivo): 47% | ΔBP (change in arterial blood pressure) ([5]; in vivo): 0% | ΔH (change in heart rate) ([5]; in vivo): 0% | Onset [5, 6]: 1.5 min

Bis[N-(3,4-diacetoxybenzyl)-6-azabicyclo[3.2.1]octanium-3-yl]cyclohexane-1,3-dicarboxylate dibromide
% VB at ED80 nmb (vagal block) ([2]; pig): 70% | BP (change in arterial blood pressure) ([2]; pig): 0% | HR (change in heart rate) ([2]; pig): 0% | ED50 ([2]; pig, intravenous dose causing 50% neuromuscular block): 0.78 mg/kg | RI (recovery index) ([2]; pig): 0.85 min | Onset ([2]; pig): 0.5 min | % VB at ED80 nmb (vagal block) ([3]; rat, in vivo): 5 (2) % | BP (change in arterial blood pressure) ([3]; rat, in vivo): 0% | HR (change in heart rate) ([3]; rat, in vivo): 0% | ED50 ([3]; rat, intravenous dose causing 50% neuromuscular block, spread in brackets): 384 (42) μg/kg | RI (recovery index) ([3]; rat, spontaneous recovery, 25-75% neuromuscular response): 0.5 (0.04) min | Onset ([3]; rat): 0.7 (0.05) min
